# Assay results as given in article PMC5544777, “Kinetics and thermodynamics of the protein-ligand interactions in the riboflavin kinase activity of the FAD synthetase from Corynebacterium ammoniagenes” (Scientific Reports, 2017).
# Where “and” joins values, the source holds several entries; their conditions need not be identical. Identical values can stand only once.
# Legend:
# [1] = target: T1, RFK module of CaFADS (Corynebacterium ammoniagenes, UniProt Q59263, L183M); assay: Isothermal titration calorimetry of binary and ternary interactions; format: binding
# T1 construct: a truncated CaFADS variant consisting in the isolated C-terminal RFK module; made in house; host or cells: E. coli BL21(DE3)
# T1 sequence (Q59263 183-338 L183M): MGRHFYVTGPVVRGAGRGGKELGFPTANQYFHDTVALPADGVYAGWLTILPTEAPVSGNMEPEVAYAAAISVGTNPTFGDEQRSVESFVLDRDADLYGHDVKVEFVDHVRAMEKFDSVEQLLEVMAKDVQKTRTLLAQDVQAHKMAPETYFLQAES
# Experimental: Isothermal titration calorimetry (ITC) experiments were performed to elucidate the order in which ligands bind to the enzyme, as well as the binding inhibition effects from the thermodynamic point of view. Experiments were carried out in an AutoITC200 (MicroCal) that was thermostated at 25 °C. […] Titrations with FLV ligands of mixtures that contained the enzyme prebound with the ANP ligand were also carried out, as well as ANP titrations of mixtures of the enzyme saturated with FLV ligands. In these experiments, the titration was performed by stepwise injecting the titrating ligand. Up to 19 injections of 2 μL each were added to the calorimetric sample cell and mixed at a stirring speed of 1000 r.p.m. Ligands and protein were dissolved in 20 mM PIPES, pH 7.0, either in the presence or absence of 0.8 mM MgCl2, and degassed prior to titration. The association constant (K a), the enthalpy change (ΔH) and the binding stoichiometry (N) were obtained through a nonlinear least squares regression of the data using a homemade model for one or two independent binding sites, which was implemented in Origin 7.0 (OriginLab) as previously described, [20]. The entropic contribution (-TΔS), the Gibbs free energy (ΔG) and the dissociation constant (K d) were obtained through essential thermodynamic equations.
# Experiments were performed in triplicate.
# [2] = Flavin photobleaching decay in the stopped-flow equipment; format: physicochemical; details: for photobleaching rate: flavin fluorescence decay during stopped-flow measurements, 25 °C, 0.8 mM MgCl2, pH 7.0; for rate of slow linear fluorescence decay (photobleaching range): flavin mixed with the RFK module without ANP, stopped-flow
# Excerpt: Due to the deterioration that flavins undergo when they are exposed to light, we also evaluated the FLV photobleaching decay during measurements.
# [3] = target: T1, RFK module of CaFADS; assay: Steady-state RFK activity (HPLC quantification of flavins); format: biochemical; details: for KmRF / k cat: saturating ATP
# Experimental: In all cases, reactions were initiated by addition of the enzyme to a final concentration of ≈40 nM, which was followed by 1 min of incubation, and the reactions were stopped by boiling the samples at 100 °C for 5 min as previously described, [20]. The flavin composition of the supernatant was analyzed using an Alliance HPLC system (Waters) equipped with a 2707 autosampler and an HSST3 column (4.6 × 50 mm, […]; Waters) preceded by a precolumn (4.6 × 20 mm, […]; Waters) as previously described, [20]. […] All the experiments were carried out in triplicate.
# Additionally, Dixon plots (1/(v 0/[e]) vs [I]) and Cornish-Bowden representations ([S]/(v 0/[e]) vs [I]) were used to reveal the type of inhibition, [43].
# [4] = initial mixture RFK:ADP, 0.0 mM MgCl2
# [5] = initial mixture RFK:ADP, 0.8 mM MgCl2
# [6] = initial mixture RFK:ATP, 0.0 mM MgCl2
# [7] = initial mixture RFK:ATP, 0.8 mM MgCl2
# [8] = initial mixture RFK, 0.0 mM MgCl2
# [9] = initial mixture RFK, 0.8 mM MgCl2
# [10] = apparent, RF varied, [FMN] 1 μM
# [11] = apparent, RF varied, [FMN] 2 μM
# [12] = apparent, RF varied, [FMN] 3 μM
# [13] = apparent, RF varied, [FMN] 5 μM
smiles,measurement,setting,value
"Cc1cc2nc3c(=O)[nH]c(=O)nc-3n(C[C@H](O)[C@H](O)[C@H](O)COP(=O)(O)O)c2cc1C [FMN, flavin mononucleotide]",interaction with the RFK module on titration with the individual ligand,"[1]; ITC thermograms, free RFK module, titrated at different temperatures",does not interact or interacts with undetectable ΔCp
same,-TΔS,[1]; [4],10.6 kcal/mol
same,ΔG,[1]; [4],-7.1 kcal/mol
same,ΔH,[1]; [4],-17.7 kcal/mol
same,-TΔS,[1]; [5],-1.9 kcal/mol
same,ΔG,[1]; [5],-8.4 kcal/mol
same,ΔH,[1]; [5],-6.4 kcal/mol
same,-TΔS,[1]; [6],15.4 kcal/mol
same,ΔG,[1]; [6],-6.3 kcal/mol
same,ΔH,[1]; [6],-21.7 kcal/mol
same,-TΔS,[1]; [7],-0.2 kcal/mol
same,ΔG,[1]; [7],-7.1 kcal/mol
same,ΔH,[1]; [7],-6.9 kcal/mol
same,photobleaching rate,[2],0.0041 ± 0.00018 min⁻¹
same,rate of slow linear fluorescence decay (photobleaching range),[2],0.0041 ± 0.00024 min⁻¹
same,type of inhibition of the RFK activity,"[3]; Dixon, Cornish-Bowden and Lineweaver-Burk plots",uncompetitive inhibitor
"Cc1cc2nc3c(=O)[nH]c(=O)nc-3n(C[C@H](O)[C@H](O)[C@H](O)CO)c2cc1C [RF, riboflavin]",Kd,"[1]; Kd, initial mixture RFK:ADP, 0.0 mM MgCl2",14.5 µM
same,Kd,"[1]; Kd, initial mixture RFK:ADP, 0.8 mM MgCl2",2.3 µM
same,Kd,"[1]; Kd, initial mixture RFK, 0.8 mM MgCl2, 20 mM PIPES, pH 7.0, 25 °C",15.2 µM
same,-TΔS,[1]; [4],67.7 kcal/mol
same,ΔG,[1]; [4],-6.6 kcal/mol
same,ΔH,[1]; [4],-74.3 kcal/mol
same,-TΔS,[1]; [5],11.5 kcal/mol
same,ΔG,[1]; [5],-7.6 kcal/mol
same,ΔH,[1]; [5],-19.2 kcal/mol
same,Kd,[1]; [6],does not bind
same,-TΔS,[1]; [8],-0.9 kcal/mol
same,ΔG,[1]; [8],-6.9 kcal/mol
same,ΔH,[1]; [8],-5.9 kcal/mol
same,-TΔS,[1]; [9],4.1 kcal/mol
same,ΔG,[1]; [9],-6.6 kcal/mol
same,ΔH,[1]; [9],-10.6 kcal/mol
same,photobleaching rate,[2],0.0046 ± 0.00018 min⁻¹
same,rate of slow linear fluorescence decay (photobleaching range),[2],0.0045 ± 0.00012 min⁻¹
same,Ki,[3],1.9 ± 0.2 µM
same,KmRF,"[3]; apparent, RF varied, [FMN] 0 μM",10 ± 2 µM
same,k cat,"[3]; apparent, RF varied, [FMN] 0 μM, substrate inhibition model, 25 °C, 0.8 mM MgCl2, pH 7.0",7.33 ± 0.833 s⁻¹
same,KmRF,[3]; [10],5.0 ± 1.1 µM
same,k cat,[3]; [10],4.67 ± 0.667 s⁻¹
same,KmRF,[3]; [11],7.7 ± 1.4 µM
same,k cat,[3]; [11],4.5 ± 0.833 s⁻¹
same,KmRF,[3]; [12],3.6 ± 0.9 µM
same,k cat,[3]; [12],2.33 ± 0.5 s⁻¹
same,KmRF,[3]; [13],5.5 ± 2.1 µM
same,k cat,[3]; [13],2 ± 0.667 s⁻¹
same,k cat,"[3]; global fit of Lineweaver-Burk equation, uncompetitive inhibition by FMN, RF varied",5.33 ± 0.667 s⁻¹ and 5.33 ± 0.5 s⁻¹
same,KmRF,"[3]; global fit of Lineweaver-Burk equation, uncompetitive inhibition by FMN",6.9 ± 0.4 µM
